Assay results published in US5385894A, “Disubstituted 6-aminoquinazolinones” (Merck & Co., Inc., priority 1994, dated 1995).

Experiment: log P (Table 1)
Assay type: physicochemical

Row | Compound | logP | log P
1 | CCCc1nc2ccc(N(CCC)C(=O)OCC(C)C)cc2c(=O)n1Cc1ccc(-c2ccccc2-c2nnn[nH]2)cc1 [Example 10] | 5.1 | –
2 | CCCOC(=O)N(Cc1ccccc1)c1ccc2nc(CCC)n(Cc3ccc(-c4ccccc4-c4nnn[nH]4)cc3)c(=O)c2c1 [Example 17] | 5 | –
3 | CCCCOC(=O)N(CCCC)c1ccc2nc(CCC)n(Cc3ccc(-c4ccccc4-c4nn[nH]n4)cc3)c(=O)c2c1 [Example 24] | 6 | –
4 | CCCc1nc2ccc(N(Cc3ccccc3)C(=O)N(C)CC)cc2c(=O)n1Cc1ccc(-c2ccccc2-c2nn[nH]n2)cc1 [Example 30] | 4.3 | –
5 | CCCCCN(C(=O)c1ccccc1)c1ccc2nc(CCC)n(Cc3ccc(-c4ccccc4-c4nn[nH]n4)cc3)c(=O)c2c1 [Example 33, 2-propyl-6-(N-benzoyl-N-pentyl)-amino-3[(2'-(tetrazol-5-yl)biphen-4-yl)methyl]quinazolin-4(3H)-one] | 5.1 | –
6 | CCCCCN(C(=O)c1ccncc1)c1ccc2nc(CCC)n(Cc3ccc(-c4ccccc4-c4nnn[nH]4)cc3)c(=O)c2c1 [Example 35] | 4.3 | –
7 | CCCc1nc2ccc(N(Cc3ccccc3)C(=O)c3ccccc3)cc2c(=O)n1Cc1ccc(-c2ccccc2-c2nn[nH]n2)cc1 [Example 36] | 4.5 | –
8 | CCCCCN(C(=O)c1ccc(Cl)cc1)c1ccc2nc(CCC)n(Cc3ccc(-c4ccccc4-c4nn[nH]n4)cc3)c(=O)c2c1 [Example 37] | > 6 | –
9 | CCCCC(=O)N(Cc1ccccc1)c1ccc2nc(CCC)n(Cc3ccc(-c4ccccc4-c4nn[nH]n4)cc3)c(=O)c2c1 [Example 42] | 5.4 | –
10 | CCCCCN(C(=O)c1ccc(F)cc1)c1ccc2nc(CCC)n(Cc3ccc(-c4ccccc4-c4nn[nH]n4)cc3)c(=O)c2c1 [Example 43] | 5.2 | –
11 | CCCCN(C(=O)c1ccc(F)cc1)c1ccc2nc(CCC)n(Cc3ccc(-c4ccccc4-c4nn[nH]n4)cc3)c(=O)c2c1 [Example 44] | 4.7 | –
12 | CCCc1nc2ccc(N(Cc3ccccc3)C(=O)OCC)cc2c(=O)n1Cc1ccc(-c2ccccc2-c2nn[nH]n2)cc1 [Example 56] | 4.7 | –
13 | CCc1nc2ccc(N(Cc3ccccc3)C(=O)c3ccccc3)cc2c(=O)n1Cc1ccc(-c2ccccc2-c2nnn[nH]2)cc1 [Example 57] | 4.1 | –
14 | CCCCN(C(=O)c1ccncc1)c1ccc2nc(CCC)n(Cc3ccc(-c4ccccc4-c4nn[nH]n4)cc3)c(=O)c2c1 [Example 68] | 4.1 | –
15 | Cc1nc2ccc(N(Cc3ccccc3)C(=O)c3ccccc3)cc2c(=O)n1Cc1ccc(-c2ccccc2-c2nnn[nH]2)cc1 [Example 69] | – | 3.5
16 | CC(C)c1nc2ccc(N(Cc3ccccc3)C(=O)c3ccccc3)cc2c(=O)n1Cc1ccc(-c2ccccc2-c2nnn[nH]2)cc1 [Example 70] | – | 4.5
17 | CCCCCN(C(=O)c1cccnc1)c1ccc2nc(CCC)n(Cc3ccc(-c4ccccc4-c4nn[nH]n4)cc3)c(=O)c2c1 [Example 72] | 4.3 | –
18 | CCCCCN(C(=O)c1ccccc1)c1ccc2nc(CCC)n(Cc3ccc(-c4ccccc4S(=O)(=O)NC(=O)C4CC4)cc3)c(=O)c2c1 [Example 73] | 5.3 | –
19 | CCCCCN(C(=O)c1ccccc1)c1ccc2nc(CCC)n(Cc3ccc(-c4ccccc4S(=O)(=O)NC(=O)c4ccccc4)cc3)c(=O)c2c1 [Example 74] | 5.5 | –
20 | CCc1nc2ccc(N(Cc3ccccc3)C(=O)c3ccncc3)cc2c(=O)n1Cc1ccc(-c2ccccc2-c2nn[nH]n2)cc1 [Example 75] | – | 3.4
21 | CCCCCN(C(=O)c1ccc([S+](C)[O-])cc1)c1ccc2nc(CCC)n(Cc3ccc(-c4ccccc4-c4nn[nH]n4)cc3)c(=O)c2c1 (centres unmarked) [Example 81] | 4.3 | –
22 | CCCCCN(C(=O)c1ccc(S(C)(=O)=O)cc1)c1ccc2nc(CCC)n(Cc3ccc(-c4ccccc4-c4nn[nH]n4)cc3)c(=O)c2c1 [Example 83] | 4.4 | –

Row | Compound | logP | log P
23 | CCc1nc2ccc(N(Cc3ccccc3Cl)C(=O)c3ccccc3)cc2c(=O)n1Cc1ccc(-c2ccccc2-c2nn[nH]n2)cc1 [Example 84] | 4.4 | –
24 | CCc1nc2ccc(N(CC=C(C)C)C(=O)c3ccccc3)cc2c(=O)n1Cc1ccc(-c2ccccc2-c2nn[nH]n2)cc1 [Example 85] | – | 4.2
25 | CCCc1nc2ccc(N(CCC)C(=O)c3ccc(F)cc3)cc2c(=O)n1Cc1ccc(-c2ccccc2-c2nn[nH]n2)cc1 [Example 90] | 4.3 | –
26 | CC(C)c1nc2ccc(N(Cc3ccccc3Cl)C(=O)C3CC3)cc2c(=O)n1Cc1ccc(-c2ccccc2-c2nn[nH]n2)cc1 [Example 94] | 4.8 | –
27 | O=C(c1ccccc1)N(Cc1ccccc1)c1ccc2ncn(Cc3ccc(-c4ccccc4-c4nn[nH]n4)cc3)c(=O)c2c1 [Example 95] | 3.3 | –
28 | CCC(C)c1nc2ccc(N(Cc3ccccc3)C(=O)c3ccccc3)cc2c(=O)n1Cc1ccc(-c2ccccc2-c2nn[nH]n2)cc1 (centres unmarked) [Example 100] | 4.9 | –
29 | CCCc1nc2ccc(N(CC(C)C)C(=O)c3ccccc3)cc2c(=O)n1Cc1ccc(-c2ccccc2-c2nnn[nH]2)cc1 [Example 102] | 4.5 | –
30 | CCCc1nc2ccc(N(CCCC(=O)OCC)C(=O)c3ccccc3)cc2c(=O)n1Cc1ccc(-c2ccccc2-c2nnn[nH]2)cc1 [Example 103] | 4.1 | –
31 | CCCCCN(C(=O)c1ccccc1)c1ccc2nc(CCC)n(Cc3ccc(-c4ccccc4NS(=O)(=O)C(F)(F)F)cc3)c(=O)c2c1 [Example 104] | 5.7 | –
32 | CCCc1nc2ccc(N(CCCC(=O)O)C(=O)c3ccccc3)cc2c(=O)n1Cc1ccc(-c2ccccc2-c2nnn[nH]2)cc1 [Example 105] | 2.3 | –
33 | Cc1nc2ccc(N(Cc3ccccc3Cl)C(=O)c3ccccc3)cc2c(=O)n1Cc1ccc(-c2ccccc2-c2nn[nH]n2)cc1 [Example 106] | 3.8 | –
34 | Cc1nc2ccc(N(Cc3ccccc3)C(=O)c3ccncc3)cc2c(=O)n1Cc1ccc(-c2ccccc2-c2nnn[nH]2)cc1 [Example 107] | 2.9 | –
35 | CCCc1nc2ccc(N(C)C(C)=O)cc2c(=O)n1Cc1ccc(-c2ccccc2S(=O)(=O)NC(=O)C2CC2)cc1 [Example 108] | 2.9 | –
36 | Cc1nc2ccc(N(Cc3ccccc3Cl)C(=O)c3ccncc3)cc2c(=O)n1Cc1ccc(-c2ccccc2-c2nnn[nH]2)cc1 [Example 110] | 3.1 | –
37 | CCc1nc2ccc(N(Cc3ccc(I)cc3)C(=O)c3ccccc3)cc2c(=O)n1Cc1ccc(-c2ccccc2-c2nnn[nH]2)cc1 [Example 112] | 5 | –
38 | CCCCCN(C(=O)c1cccs1)c1ccc2nc(CCC)n(Cc3ccc(-c4ccccc4-c4nnn[nH]4)cc3)c(=O)c2c1 [Example 113] | 5.1 | –
39 | CCCc1nc2ccc(N(C)C(=O)c3cccs3)cc2c(=O)n1Cc1ccc(-c2ccccc2-c2nnn[nH]2)cc1 [Example 114] | 3.4 | –
40 | CCc1nc2ccc(N(Cc3ccccc3I)C(=O)c3ccccc3)cc2c(=O)n1Cc1ccc(-c2ccccc2-c2nn[nH]n2)cc1 [Example 117] | 4.6 | –
41 | CCc1nc2ccc(N(Cc3ccccc3)C(=O)c3cccs3)cc2c(=O)n1Cc1ccc(-c2ccccc2-c2nn[nH]n2)cc1 [Example 118] | – | 4.1
42 | CCCc1nc2ccc(N(CCOC)C(=O)c3ccncc3)cc2c(=O)n1Cc1ccc(-c2ccccc2-c2nnn[nH]2)cc1 [Example 119] | 3 | –
43 | CCCc1nc2ccc(N(CC(=O)O)C(=O)c3ccccc3)cc2c(=O)n1Cc1ccc(-c2ccccc2-c2nnn[nH]2)cc1 [Example 120] | 2.1 | –
44 | CCCCCN(C(=O)c1ccc(Cl)cc1)c1ccc2nc(COC)n(Cc3ccc(-c4ccccc4-c4nnn[nH]4)cc3)c(=O)c2c1 [Example 121] | 4.6 | –
